In patent US5681738A, “Use of 10-oxo-trans-8-decenoic acid in mushroom cultivation” (The Penn State Research Foundation, priority 1992, dated 1997):

Key:
[1] = system: Agaricus bisporus mycelia; experiment: Linear growth rate of mycelia on potato dextrose yeast (PDY) agar at 25° C.; type: cell-based, Agaricus bisporus (hybrid off-white); conditions: for linear growth rate of mycelia (in words): PDY agar; for Linear growth rate: control 5.66
Method: The commercial mushroom spawn (hybrid off-white), Agaricus bisporus (Lange) Imbach, was obtained from Alpha Spawn Co., Avondale, Pa., and inoculated onto potato dextrose yeast (PDY) agar (Difco) and incubated at 25° C. A pure culture was obtained from the grain spawn grown on petri dishes and re-inoculated into PDY agar and maintained at 25° C. before use.
The mushroom culture was grown on PDY agar or in PDY broth, both containing 0.5% yeast extract. The broth was dispensed into flasks prior to autoclaving, 50 mL. per flask, while 5 mL of sterile ODA solutions were aseptically added into flasks before inoculation.
To prepare ODA solutions, about 18.4 mg (0.1 mmole) of 10-oxo-trans-8-decenoic acid prepared as described above were dissolved in i mL ethanol and diluted with deionized water to 100 mL to give a molar concentration of 10^-3 M, and then diluted in order to add 1.0 mL of the solutions to each flask to give the required final concentrations.
Sterile ODA solutions were aseptically added into the autoclaved agar medium to achieve the desired final ODA concentrations, and then the medium was dispensed into petri dishes, ca 30 ml per dish. The levels of ODA tested included 2×10^-4, 10^-4, 10^-5, 10^-6 and 10^-7 M for both PDY agar and broth. […]
Methods for the estimation of total fungal growth include the measurement of dry matter, linear growth, carbon dioxide evolution, chitin, ATP as well as extracellular laccase activity (Cochrane, (1958); Wood, (1979)). In this research the linear growth rate was used to examine the growth of mushroom mycelia on agar plates, while the extracellular laccase activity and dry matter were determined to estimate the growth of mycelia in liquid cultures. Extracellular laccases (p-diphenol: oxygen oxidoreductase, EC 1.10.3.2) produced by various classes of fungi are reported to be involved in biotransformation of lignin and lignosulfonate (Anders et al., (1976)), as well as in the breakdown of cellulose by cellulase (Westermark et al., (1974a); Westermark et al., (1974b); Haars et al., (1980)). Although the role of laccase in growth and development of Agaricus bisporus is not well defined, it has been observed that laccase production correlated with mycelial biomass of this fungus (Wood, (1979); Matcham et al., (1985); Claydon et al., (1988)).

[2] = system: separated upper stipes of Agaricus bisporus; experiment: Elongation of separated upper stipes on test agar containing ODA, storage at 12° C.; set-up: species or system Agaricus bisporus (hybrid off-white)
Method: Four type strains of mushrooms were used: the white, off-white, hybrid white (U3) and hybrid off-white (U1). Mushrooms from each flush were harvested before the veil was broken. Freshly harvested mushrooms were transported within about one hour after harvest to Borland Laboratory and placed in the pilot plant cold room (4° C.) for about two hours before sampling. Mushrooms were sorted on the basis of size and appearance. Diseased, damaged, misshapen, veil-opened and extremely large or small mushrooms (>40 or <25 mm in cap diameter) were discarded. Mushrooms of uniform size (25-40 mm) and maturity of the button stage (stage 1, veil intact tightly) were used in this research.
Whole stipes were cut at the lower portions to a length of 7-9 mm to standardize the sample, and marked at the middle of the veil, which is the location where the veil attaches to the stipe, to indicate the upper and lower stipes. The separated stipes contained 2-4 mm of upper stipes and 5-6 nun of lower stipes. For the study using separated upper stipes, mushrooms were dissected directly into upper stipes with a length of 3-5 mm. The separated stipes or upper stipes were put upside down on the test agar containing various mushroom supernatants or ODA concentrations; i.e., the upper sides in contact with the agar surface (FIG. 12). All petri dishes were covered and stored at 12° C. The length of separated stipes and upper stipes was measured using a vernier caliper before and after certain days of storage.
Sterile ODA solutions were aseptically added into the autoclaved agar solutions to achieve the desired final ODA concentrations. The agar solution was then dispensed into dishes, ca 20.8 mL per dish. The level of ODA tested included 10^-4, 10^-5, 10^-6, 10^-7, and 10^-8 M. Mushrooms (hybrid off-white) from 6 different crops were used to study their postharvest growth. In the first 2 experiments, mushroom stipes were measured after 4-day storage at 12° C. In order to prevent stipe deterioration and desiccation of the test agar, in the following experiments mushroom stipes were measured after 3-day storage at 12° C.
The experimental data were subjected to a single classification analysis of variance (AOV) for a completely randomized design (Steele et al., 1980). Fisher's protected least significant difference (LSD) was applied to separate the means. The level of significance used in this research was 0.05.
Since the upper stipe was the major portion which responded to crude preparations of ODA, the following experiment used only upper stipes and applied pure ODA solns to the test agar. Because desiccation of the test agar sometimes occurred after 4 days of storage, in the third replication of this experiment and in subsequent experiments, the stipes were measured after 3 days of storage.

For `O=C/C=C/CCCCCCC(=O)O` [ODA, 10-oxo-trans-8-decenoic acid], the “linear growth rate of mycelia (in words)” value ([1]; 2×10^-4 and 10^-4 M (36.8 and 18.4 ppm)) was “greatly increased”, the “linear growth rate of mycelia (in words)” value ([1]; 10^-5 M (1.84 ppm)) was “slightly increased” and the activity at 200 µM ([1]; Agaricus bisporus, ODA 2 × 10^-4 M (36.8 ppm), control 1.00 d, significance letter a, read-out: Relative linear growth rate) was 188%. The activity at 100 µM ([1]; Agaricus bisporus, ODA 10^-4 M (18.4 ppm), control 1.00 d, significance letter b, read-out: Relative linear growth rate) was 150%, the activity at 10 µM ([1]; Agaricus bisporus, ODA 10^-5 M (1.84 ppm), control 1.00 d, significance letter c, read-out: Relative linear growth rate) was 114% and the activity at 1 µM ([1]; Agaricus bisporus, ODA 10^-6 M (0.184 ppm), control 1.00 d, significance letters cd, read-out: Relative linear growth rate) was 110%. For the same molecule, the activity at 0.1 µM ([1]; Agaricus bisporus, ODA 10^-7 M (0.0184 ppm), control 1.00 d, significance letters cd, read-out: Relative linear growth rate) was 105%, the Linear growth rate ([1]; ODA 2 × 10^-4 M (36.8 ppm) in PDY agar) was 9.85 mm/wk and the Linear growth rate ([1]; ODA 10^-4 M (18.4 ppm) in PDY agar) was 8.42 mm/wk. It also gave a Linear growth rate ([1]; ODA 10^-5 M (1.84 ppm) in PDY agar) of 6.40 mm/wk, a Linear growth rate ([1]; ODA 10^-6 M (0.184 ppm) in PDY agar) of 6.17 mm/wk and a Linear growth rate ([1]; ODA 10^-7 M (0.0184 ppm) in PDY agar) of 5.90 mm/wk. The “effect on mushroom mycelial growth (in words)” value ([1]; PDY agar and broth, linear growth, dry matter and laccase activity) was “significant stimulatory effect”, the “% Elongation of upper stipes” value ([2]; ODA 10^-4 M (18.4 ppm), rep 1, 4-day storage, control 34.3) was 34.8% and the “% Elongation of upper stipes” value ([2]; ODA 10^-4 M (18.4 ppm), rep 2, 4-day storage, control 33.3) was 40.1%. For the same molecule, the “% Elongation of upper stipes” value ([2]; ODA 10^-4 M (18.4 ppm), rep 3, 3-day storage, control 20.5) was 17.7%, the “% Elongation of upper stipes” value ([2]; ODA 10^-5 M (1.84 ppm), rep 1, 4-day storage, control 34.3) was 35.5% and the “% Elongation of upper stipes” value ([2]; ODA 10^-5 M (1.84 ppm), rep 2, 4-day storage, control 33.3) was 36.5%. For the same molecule, the “% Elongation of upper stipes” value ([2]; ODA 10^-5 M (1.84 ppm), rep 3, 3-day storage, control 20.5) was 19.3%, the “% Elongation of upper stipes” value ([2]; ODA 10^-6 M (0.184 ppm), rep 1, 4-day storage, control 34.3) was 39.9% and the “% Elongation of upper stipes” value ([2]; ODA 10^-6 M (0.184 ppm), rep 2, 4-day storage, control 33.3) was 35.7%. The “% Elongation of upper stipes” value ([2]; ODA 10^-6 M (0.184 ppm), rep 3, 3-day storage, control 20.5) was 16.6%, the “% Elongation of upper stipes” value ([2]; ODA 10^-7 M (0.0184 ppm), rep 1, 4-day storage, control 34.3) was 41.0% and the “% Elongation of upper stipes” value ([2]; ODA 10^-7 M (0.0184 ppm), rep 2, 4-day storage, control 33.3) was 42.3%. For the same molecule, the “% Elongation of upper stipes” value ([2]; ODA 10^-7 M (0.0184 ppm), rep 3, 3-day storage, control 20.5) was 18.1%, the “% Elongation of upper stipes” value ([2]; ODA 10^-8 M (0.00184 ppm), rep 1, 4-day storage, control 34.3) was 30.1% and the “% Elongation of upper stipes” value ([2]; ODA 10^-8 M (0.00184 ppm), rep 2, 4-day storage, control 33.3) was 39.6%. For the same molecule, the “% Elongation of upper stipes” value ([2]; ODA 10^-8 M (0.00184 ppm), rep 3, 3-day storage, control 20.5) was 15.8% and the “elongation of upper stipes among treatments (in words)” value ([2]; pure ODA, upper stipes only) was “no differences”.
